According to paper PMC6255099, “Amides from Piper capense with CNS Activity – A Preliminary SAR Analysis” (Molecules, 2009):
Values joined by “and” are separate entries in the source; they are usually repeats but may differ in a detail not shown here. Equal values may be shown once. Read-outs that look alike come from different tables or passages of the source.

Tests used:
GABAA receptor = system: GABAA receptor; parameters: method as in PMID 1332016; settings: cited from earlier work
[1] = system: benzodiazepine site on the GABAA receptor; test: [3H]-flumazenil binding assay (GABA-benzodiazepine binding assay); parameters: species or system rat; settings: for affinity for the benzodiazepine site (in words): [3H]-flumazenil binding assay; for Ki: as worded in text b6; for IC50: rat brain cortex, 0.5 nM [3H]-flumazenil, mean ± standard error, n.d. = not detected in tested concentrations below 10 mM
Method: (§1) The GABA binding assay was carried out according to a previously published method, with modifications. To a suspension of rat brain cortex (500 µL) was added test solution (25 µL) and [^3H]-flumazenil (25 µL, Ro 15-1788, Perkin-Elmer Life Science) to 0.5 nM final concentration in the assay. The suspension was mixed and incubated for 40 min on ice and poured directly onto glass fiber filters (Adventic, GC-50) under suction, in an ice-bath, followed by washing with ice-cold Tris-citrate buffer. The amount of radioactivity was determined by liquid scintillation counting. Non-specific binding was determined using diazepam (1 µM final concentration in the assay) and flumazenil was used as positive control. Specific binding was calculated as total binding minus non-specific binding. All experiments were done in triplicate. The serotonin re-uptake inhibition assay was performed according to previously described methods.

[2] = target: serotonin re-uptake transport protein (Rattus norvegicus, UniProt P31652); test: [3H]-citalopram binding assay (serotonin re-uptake inhibition assay)
Method: as §1

MES seizures in mice = system: MES seizures in mice; parameters: method as in doi:10.1016/S0165-7208(06)80055-3; settings: cited from earlier work
[3] = mean ± standard error, n.d. = not detected in tested concentrations below 10 mM, read-out: [3H]-citalopram binding assay IC50
[4] = read-out: Ki, serotonin re-uptake transport protein

Chain of serotonin re-uptake transport protein (P31652 whole entry): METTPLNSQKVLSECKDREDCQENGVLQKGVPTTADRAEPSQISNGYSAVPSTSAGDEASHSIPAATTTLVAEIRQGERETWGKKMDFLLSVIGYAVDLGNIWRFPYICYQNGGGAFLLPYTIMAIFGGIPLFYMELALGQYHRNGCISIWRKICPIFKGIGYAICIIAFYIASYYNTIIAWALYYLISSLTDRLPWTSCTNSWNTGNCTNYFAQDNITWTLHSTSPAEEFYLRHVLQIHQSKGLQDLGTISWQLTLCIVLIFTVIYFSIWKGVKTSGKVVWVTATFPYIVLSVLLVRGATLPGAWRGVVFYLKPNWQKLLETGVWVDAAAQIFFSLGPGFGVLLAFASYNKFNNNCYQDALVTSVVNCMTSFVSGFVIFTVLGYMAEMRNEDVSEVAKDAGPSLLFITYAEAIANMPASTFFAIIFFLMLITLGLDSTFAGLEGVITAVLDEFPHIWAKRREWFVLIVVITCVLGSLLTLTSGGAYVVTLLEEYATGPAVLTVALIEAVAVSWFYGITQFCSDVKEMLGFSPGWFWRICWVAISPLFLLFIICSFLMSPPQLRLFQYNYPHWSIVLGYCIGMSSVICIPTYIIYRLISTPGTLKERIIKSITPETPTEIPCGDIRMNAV

COC1=CC(=O)O[C@@H](/C=C/c2ccc3c(c2)OCO3)C1 [methysticin, Methysticin]
association of GABAA receptor activation with the benzodiazepine binding site (GABAA receptor): not to be associated with the benzodiazepine binding site

O=C(/C=C/c1ccc2c(c1)OCO2)N1CCCCC1 [Compound 5, Antiepilepsirine]
affinity for the benzodiazepine site (in words) [1]: no affinity

O=C(CCCCc1ccc2c(c1)OCO2)N1CCCCC1 [Compound 4, Tetrahydropiperidine]
IC50 [2, 3]: 585 ± 1520 µM

O=C(CCc1ccc2c(c1)OCO2)N1CCCCC1 [Compound 6, 3-Benzo[1,3]dioxol-5-yl-1-piperidin-1-yl-propan-1-one]
affinity for the benzodiazepine site (in words) [1]: lack of affinity
protection against MES induced seizures (MES seizures in mice): protection

CC(C)NC(=O)CCc1ccc2c(c1)OCO2 [Compound 10, 3-Benzo[1,3]dioxol-5-yl-N-isopropyl-propionamide]
affinity for the benzodiazepine site (in words) [1]: lack of affinity
protection against MES induced seizures (MES seizures in mice): protection

O=C(/C=C/C=C/c1ccc2c(c1)OCO2)N1CCCCC1 [Compound 1, Piperine]
Ki [1]: 1175 ± 3 µM
IC50 [1]: 1200 µM and 1180 µM

O=C(/C=C/CCc1cc2c(cc1Cl)OCO2)N1CCCCC1 [Compound 8, trans-5-(6-Chlorobenzo[1,3]dioxol-5-yl)-1-(piperidin-1-yl)pent-2-en-1-one]
IC50 [2, 3]: 2690 ± 1390 µM
IC50 [2, 4]: 2690 ± 1390 µM

O=C(/C=C/CCc1ccc2c(c1)OCO2)N1CCCCC1 [Compound 2, 4,5-Dihydropiperine]
Ki [1]: 1054 ± 4 µM
IC50 [1]: 1000 µM and 1050 µM
IC50 [2, 3]: 2980 ± 1630 µM
IC50 [2, 4]: 2980 ± 1630 µM
